Measurements reported in patent US20250058027A1, “Nanoyarns as Drug-Releasing Facilitator” (Amrita Vishwa Vidyapeetham, priority 2023, published 2025).
Counter-ions that a name gives are not always drawn. Like-named read-outs stand apart in the source and are kept apart here.

Parameters: species or system Yorkshire-desi crossbred pigs
Details: pig, in vivo
Excerpt: To assess the feasibility and safety of the developed device, in vivo implantation of nanostent was done in the porcine bile duct under fluoroscopic guidance via ERCP procedure. In this embodiment, in a total of 14 animals (Yorkshire-desi crossbred pigs), nanostents and control SEMS (SEMS without nanoyarns) were implanted and analyzed for two-time points (3 and 5 months). The fluoroscopic images of the control and nanostent implanted bile duct reveal the proper deployment of the stents in the bile duct. This points to the feasibility of implantation of the nanoyarn-integrated SEMS in vivo.
Endoscopic follow-up was performed in the animals at regular intervals. Blood and bile were collected for analysis of the drug content at intermittent time periods. These were then tested for the presence of GEM and its metabolite by HPLC. GEM and its metabolite DFDU could not be detected in blood up to the limit of its detection i.e., 300 ng. […] The drug content in bile was also undetectable, owing to the drug release happening in a continuously flowing bile fluid. However, the presence of remnant drug could be measured in the nanoyarns taken from explanted stents at 3 and 5 months, to be ˜1000 μg and 50 μg respectively. This confirms that the nanoyarn integrated with the stent can provide a localized drug release over prolonged time periods.

| SMILES | drug/metabolite in blood [ng] | drug/metabolite in blood (Yorkshire-desi crossbred) [ng] | drug content in bile |
| --- | --- | --- | --- |
| O=c1ccn(C2OC(CO)C(O)C2(F)F)c(=O)[nH]1 (stereo not drawn) [DFDU] | < 300 |  |  |
| Nc1ccn([C@@H]2O[C@H](CO)[C@@H](O)C2(F)F)c(=O)n1 [GEM, Gemcitabine hydrochloride] |  | < 300 | undetectable |
